Source: US10072006B2 (MUTABILIS, priority 2015, dated 2018)

Tests used:
KPC-2 = molecular target: T1, KPC-2 (Klebsiella pneumoniae, UniProt Q9F663); assay: β-lactamase inhibitory activity, determination of IC50 (nitrocefin hydrolysis); format: biochemical
T1 construct: made in house; host or cells: E. coli

[1] = system: C. murliniae 210102 (VIM-4); assay: MIC of compounds and synergy with ceftazidime (broth microdilution); format: cell-based; conditions: strain 210102 (C. murliniae); for MIC: 18 h, read-out: MIC compounds of the invention alone; for MIC, combination of CAZ and compounds of the invention: MIC of ceftazidime with compound fixed at 4 μg/mL
Protocol: (§1) Briefly, compounds alone according to the invention were prepared in DMSO and spotted (2 μL each) on sterile polystyrene plates (Corning, 3788). […] Microplates were incubated for 16-20 h at 35° C. in ambient air. The MIC of the compounds was defined as the lowest concentration of said compounds that prevented bacterial growth as read by visual inspection.

[2] = system: E. cloacae P99 (Derepressed ampC); assay: as above; format: cell-based; conditions: strain P99 (E. cloacae); for MIC: Enterobacter cloacae, 18 h, read-out: MIC compounds of the invention alone; for MIC, combination of CAZ and compounds of the invention: MIC of ceftazidime with compound fixed at 4 μg/mL
Protocol: as §1

[3] = system: E. cloacae UFR38 (CTX-M-15, NDM-1); assay: as above; format: cell-based; conditions: strain UFR38 (E. cloacae); for MIC: Enterobacter cloacae, 18 h, read-out: MIC compounds of the invention alone; for MIC, combination of CAZ and compounds of the invention: MIC of ceftazidime with compound fixed at 4 μg/mL
Protocol: as §1

[4] = system: E. cloacae UFR70 (TEM-1, CTX-M-15, CMY-2, OXA-1, Porin loss); assay: as above; format: cell-based; conditions: for MIC: Enterobacter cloacae, 18 h, read-out: MIC compounds of the invention alone; for MIC, combination of CAZ and compounds of the invention: MIC of ceftazidime with compound fixed at 4 μg/mL, strain UFR70 (E. cloacae)
Protocol: as §1

[5] = system: E. coli 131119 (TEM-1, OXA-48); assay: as above; format: cell-based; conditions: strain 131119 (E. coli); for MIC: Escherichia coli, 18 h, read-out: MIC compounds of the invention alone; for MIC, combination of CAZ and compounds of the invention: MIC of ceftazidime with compound fixed at 4 μg/mL
Protocol: as §1

E. coli RGN238 (OXA-1) = assay: as above; format: cell-based; conditions: strain RGN238 (E. coli); for MIC: Escherichia coli, 18 h, read-out: MIC compounds of the invention alone; for MIC, combination of CAZ and compounds of the invention: MIC of ceftazidime with compound fixed at 4 μg/mL
Protocol: as §1

[6] = system: E. coli UFR18 (CTX-M-15, OXA-204); assay: as above; format: cell-based; conditions: strain UFR18 (E. coli); for MIC: Escherichia coli, 18 h, read-out: MIC compounds of the invention alone; for MIC, combination of CAZ and compounds of the invention: MIC of ceftazidime with compound fixed at 4 μg/mL
Protocol: as §1

[7] = system: E. coli UFR32 (TEM-1, VEB-1, OXA-10); assay: as above; format: cell-based; conditions: strain UFR32 (E. coli); for MIC: Escherichia coli, 18 h, read-out: MIC compounds of the invention alone; for MIC, combination of CAZ and compounds of the invention: MIC of ceftazidime with compound fixed at 4 μg/mL
Protocol: as §1

[8] = system: E. coli UFR52 (TEM-1, SHV-12, IMP-8); assay: as above; format: cell-based; conditions: strain UFR52 (E. coli); for MIC: Escherichia coli, 18 h, read-out: MIC compounds of the invention alone; for MIC, combination of CAZ and compounds of the invention: MIC of ceftazidime with compound fixed at 4 μg/mL
Protocol: as §1

[9] = system: E. coli UFR61O (TEM-1, KPC-2); assay: as above; format: cell-based; conditions: for MIC: Escherichia coli, strain UFR61O (E. coli), read-out: MIC compounds of the invention alone; for MIC, combination of CAZ and compounds of the invention: MIC of ceftazidime with compound fixed at 4 μg/mL, strain UFR610 (E. coli)
Protocol: as §1

[10] = system: E. coli UFR74 (SHV-1, DHA-1); assay: as above; format: cell-based; conditions: strain UFR74 (E. coli); for MIC: Escherichia coli, 18 h, read-out: MIC compounds of the invention alone; for MIC, combination of CAZ and compounds of the invention: MIC of ceftazidime with compound fixed at 4 μg/mL
Protocol: as §1

[11] = system: K. pneumoniae 6299 (TEM-1, SHV-11, OXA-163); assay: as above; format: cell-based; conditions: strain 6299 (K. pneumoniae); for MIC: Klebsiella pneumoniae, 18 h, read-out: MIC compounds of the invention alone; for MIC, combination of CAZ and compounds of the invention: MIC of ceftazidime with compound fixed at 4 μg/mL
Protocol: as §1

[12] = system: K. pneumoniae BAA-1898 (TEM-1, SHV-11, SHV-12, KPC-2); assay: as above; format: cell-based; conditions: strain BAA-1898 (K. pneumoniae); for MIC: Klebsiella pneumoniae, BAA1898, read-out: MIC compounds of the invention alone; for MIC, combination of CAZ and compounds of the invention: MIC of ceftazidime with compound fixed at 4 μg/mL
Protocol: as §1

[13] = system: K. pneumoniae UFR24 (TEM-1, SHV-2, SHV-11, OXA-1, OXA-48, OXA-47); assay: as above; format: cell-based; conditions: strain UFR24 (K. pneumoniae); for MIC: Klebsiella pneumoniae, 18 h, read-out: MIC compounds of the invention alone; for MIC, combination of CAZ and compounds of the invention: MIC of ceftazidime with compound fixed at 4 μg/mL
Protocol: as §1

[14] = system: K. pneumoniae UFR77 (CMY-2); assay: as above; format: cell-based; conditions: strain UFR77 (K. pneumoniae); for MIC: Klebsiella pneumoniae, 18 h, read-out: MIC compounds of the invention alone; for MIC, combination of CAZ and compounds of the invention: MIC of ceftazidime with compound fixed at 4 μg/mL
Protocol: as §1

[15] = system: P. aeruginosa CIP105250 (OXA-15); assay: as above; format: cell-based; conditions: strain CIP105250 (P. aeruginosa); for MIC, combination of CAZ and compounds of the invention: MIC of ceftazidime with compound fixed at 4 μg/mL; for MIC: Pseudomonas aeruginosa, 18 h, read-out: MIC compounds of the invention alone
Protocol: as §1

[16] = system: P. aeruginosa CIP107051 (TEM-24); assay: as above; format: cell-based; conditions: strain CIP107051 (P. aeruginosa); for MIC, combination of CAZ and compounds of the invention: MIC of ceftazidime with compound fixed at 4 μg/mL; for MIC: Pseudomonas aeruginosa, 18 h, read-out: MIC compounds of the invention alone
Protocol: as §1

[17] = system: P. aeruginosa UFR35 (OXA-23); assay: as above; format: cell-based; conditions: strain UFR35 (P. aeruginosa); for MIC: Pseudomonas aeruginosa, 18 h, read-out: MIC compounds of the invention alone
Protocol: as §1

[18] = system: P. aeruginosa UFR47 (VIM-1); assay: as above; format: cell-based; conditions: strain UFR47 (P. aeruginosa); for MIC: Pseudomonas aeruginosa, 18 h, read-out: MIC compounds of the invention alone
Protocol: as §1

[19] = system: P. aeruginosa UFR48 (VIM-2); assay: as above; format: cell-based; conditions: strain UFR48 (P. aeruginosa); for MIC: Pseudomonas aeruginosa, 18 h, read-out: MIC compounds of the invention alone
Protocol: as §1

[20] = system: P. aeruginosa UFR59 (IMP-29); assay: as above; format: cell-based; conditions: strain UFR59 (P. aeruginosa); for MIC: Pseudomonas aeruginosa, 18 h, read-out: MIC compounds of the invention alone
Protocol: as §1

[21] = system: P. aeruginosa UFR93 (Derepressed ampC, OprD-, MexAB+, MexXY+); assay: as above; format: cell-based; conditions: for MIC: Pseudomonas aeruginosa, 18 h, read-out: MIC compounds of the invention alone
Protocol: as §1

[22] = MIC of ceftazidime with compound fixed at 4 μg/mL

T1 sequence (Q9F663 25-293 limits assumed): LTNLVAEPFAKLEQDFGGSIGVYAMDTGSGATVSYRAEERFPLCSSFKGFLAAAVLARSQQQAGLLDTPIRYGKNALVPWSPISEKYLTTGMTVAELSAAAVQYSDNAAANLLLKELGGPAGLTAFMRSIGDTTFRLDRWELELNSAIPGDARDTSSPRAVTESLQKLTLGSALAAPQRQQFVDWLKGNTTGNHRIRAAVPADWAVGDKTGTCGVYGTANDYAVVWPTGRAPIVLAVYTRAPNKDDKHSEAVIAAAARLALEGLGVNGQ

For `NC[C@@H]1C(c2nccs2)=C[C@@H]2CN1C(=O)N2OS(=O)(=O)[O-].O=C(O)C(F)(F)F.[Na+]` [Example 2, Sodium and 2,2,2-trifluoroacetate [(2S,5R)-2-(azaniumylmethyl)-7-oxo-3-thiazol-2-yl-1,6-diazabicyclo[3.2.1]oct-3-en-6-yl] sulfate], the IC50 (KPC-2) was 0.0039 µM, the MIC [1] was 4 mg/L and the “MIC, combination of CAZ and compounds of the invention” value (“MIC, combination” for short) [1] was at most 0.125 mg/L. For the same compound, the MIC [2] was at most 0.016 mg/L, the “MIC, combination” value [2] was under 0.25 mg/L and the MIC [3] was 32 mg/L. The “MIC, combination” value [3] was under 0.25 mg/L, the MIC [4] was 4 mg/L and the “MIC, combination” value [4] was under 0.25 mg/L. For the same compound, the MIC [5] was at most 0.016 mg/L, the “MIC, combination” value [5] was under 0.25 mg/L and the MIC (E. coli RGN238 (OXA-1)) was 8 mg/L. The “MIC, combination” value (E. coli RGN238 (OXA-1)) was at most 0.125 mg/L, the MIC [6] was at most 0.016 mg/L and the “MIC, combination” value [6] was under 0.25 mg/L. For the same compound, the MIC [7] was at most 0.016 mg/L, the “MIC, combination” value [7] was under 0.25 mg/L and the MIC [8] was 4 mg/L. The “MIC, combination” value [8] was under 0.25 mg/L, the MIC [9] was 0.031 mg/L and the “MIC, combination” value [9] was under 0.25 mg/L. For the same compound, the MIC [10] was 16 mg/L, the “MIC, combination” value [10] was at most 0.125 mg/L and the MIC [11] was over 32 mg/L. For the same compound, the “MIC, combination” value [11] was 4 mg/L, the MIC [12] was 16 mg/L and the “MIC, combination” value [12] was at most 0.125 mg/L. The MIC [13] was over 32 mg/L, the “MIC, combination” value [13] was 0.25 mg/L and the MIC [14] was 32 mg/L. The “MIC, combination” value [14] was 2 mg/L, the “MIC, combination” value [15] was at most 0.125 mg/L and the MIC [15] was 8 mg/L. For the same compound, the “MIC, combination” value [16] was under 0.25 mg/L, the MIC [16] was 2 mg/L and the “MIC, combination” value [17, 22] was under 0.25 mg/L. The MIC [17] was 2 mg/L, the “MIC, combination” value [18, 22] was under 0.25 mg/L and the MIC [18] was 2 mg/L. The “MIC, combination” value [19, 22] was under 0.25 mg/L, the MIC [19] was 2 mg/L and the “MIC, combination” value [20, 22] was under 0.25 mg/L. The MIC [20] was 8 mg/L, the “MIC, combination” value ([21]; MIC of ceftazidime with compound fixed at 4 μg/mL, strain UFR93 (P. aeruginosa)) was under 0.25 mg/L and the MIC [21] was 4 mg/L.
With `NC[C@@H]1C(c2ncco2)=C[C@@H]2CN1C(=O)N2OS(=O)(=O)[O-].O=C(O)C(F)(F)F.[Na+]` [Example 5, Sodium and 2,2,2-trifluoroacetate [(2S,5R)-2-(azaniumylmethyl)-7-oxo-3-oxazol-2-yl-1,6-diazabicyclo[3.2.1]oct-3-en-6-yl] sulfate] the IC50 (KPC-2) was 1.8 µM, the MIC [1] was 4 mg/L and the “MIC, combination” value [1] was under 0.25 mg/L. For the same compound, the MIC [2] was at most 0.016 mg/L, the “MIC, combination” value [2] was under 0.25 mg/L and the MIC [3] was at most 0.016 mg/L. The “MIC, combination” value [3] was under 0.25 mg/L, the MIC [4] was 8 mg/L and the “MIC, combination” value [4] was under 0.25 mg/L. The MIC [5] was 0.063 mg/L, the “MIC, combination” value [5] was under 0.25 mg/L and the MIC (E. coli RGN238 (OXA-1)) was 16 mg/L. The “MIC, combination” value (E. coli RGN238 (OXA-1)) was under 0.25 mg/L, the MIC [6] was at most 0.016 mg/L and the “MIC, combination” value [6] was under 0.25 mg/L. The MIC [7] was 0.063 mg/L, the “MIC, combination” value [7] was under 0.25 mg/L and the MIC [8] was 4 mg/L. The “MIC, combination” value [8] was under 0.25 mg/L, the MIC [9] was 0.5 mg/L and the “MIC, combination” value [9] was under 0.25 mg/L. For the same compound, the MIC [10] was 16 mg/L, the “MIC, combination” value [10] was under 0.25 mg/L and the MIC [11] was over 32 mg/L. The “MIC, combination” value [11] was 8 mg/L, the MIC [12] was 16 mg/L and the “MIC, combination” value [12] was at most 0.125 mg/L. For the same compound, the MIC [13] was over 32 mg/L, the “MIC, combination” value [13] was under 0.25 mg/L and the MIC [14] was over 32 mg/L. For the same compound, the “MIC, combination” value [14] was under 0.25 mg/L, the “MIC, combination” value [15] was under 0.25 mg/L and the MIC [15] was 4 mg/L. The “MIC, combination” value [16] was under 0.25 mg/L, the MIC [16] was 2 mg/L and the MIC [17] was 0.25 mg/L. For the same compound, the MIC [18] was 1 mg/L, the MIC [19] was 2 mg/L and the MIC [20] was 2 mg/L. For the same compound, the MIC [21] was 4 mg/L.
